Reference: BigSolDB 2.1

Brc1c(Br)c(Br)c(Oc2c(Br)c(Br)c(Br)c(Br)c2Br)c(Br)c1Br
solubility (mole fraction)
Conditions | in THF | in acetone | in ethyl acetate | in limonene | in toluene
283 K | 0.00449 | 4.4e-05 | 0.000133 | 0.00162 | 0.00274
293 K | 0.00524 | 6e-05 | 0.000173 | 0.00242 | 0.00362
303 K | 0.00607 | 9.1e-05 | 0.000252 | 0.00282 | 0.0052
313 K | 0.00695 | 0.000119 | 0.000346 | 0.00397 | 0.00651
323 K | 0.0085 | 0.000145 | 0.000455 | 0.00485 | 0.00771
